{"source": "paper PMC4992440", "about": "(ACS chemical biology, 2016)", "key": {"[1]": {"tested_on": "p-HDAC5 (Ser259) in BMDMs", "test": "HDAC5 Ser259 phosphorylation in LPS-stimulated BMDMs", "type": "cell-based, mouse", "conditions": "1 μM, 6 hr pre-incubation, LPS 30 min"}, "[2]": {"test": "Mouse liver microsome stability", "conditions": "mouse liver microsomes; 1 independent experiment"}, "[3]": {"test": "Serum / plasma protein binding", "type": "in vitro ADME, mouse"}, "[4]": {"tested_on": "IL-10 production in Zymosan A-stimulated BMDCs", "test": "IL-10 production by Zymosan A-stimulated BMDCs", "type": "cell-based, mouse", "conditions": "read-out: IL-10 EC50, mean ± SD from ≥ 2 independent experiments"}, "BMDCs": {"tested_on": "BMDCs", "test": "Cellular cytotoxicity in Zymosan A-stimulated BMDCs", "type": "cell-based, mouse"}, "[5]": {"test": "Pharmacokinetics after IP administration in mice", "type": "in vivo", "conditions": "mouse"}, "[6]": {"conditions": "mouse, microsomes"}, "[7]": {"tested_on": "LPS-stimulated C57BL/6 mice", "type": "in vivo", "conditions": "mouse"}, "[8]": {"tested_on": "Il10 and Nurr77 transcripts in BMDCs", "test": "CREB target gene transcripts in LPS-stimulated BMDCs", "type": "cell-based, mouse", "conditions": "1 μM, 24 hr pre-treatment"}, "[9]": {"tested_on": "TNFα, IL-6, IL-12p40, IL-1β in BMDCs", "test": "Inflammatory cytokine production by Zymosan A-stimulated BMDCs", "type": "cell-based, mouse", "conditions": "1 μM 24 hr, Zymosan A 18 hr"}, "PBS solubility": {"test": "PBS solubility", "type": "physicochemical"}, "C57BL/6 mice": {"tested_on": "C57BL/6 mice", "test": "Daily dosing for 1 week in mice: weight, serum triglycerides, adiponectin", "type": "in vivo, mouse", "conditions": "wild-type mice, daily for 1 week"}}, "note": "Read-outs that look alike come from different tables or passages of the source."}
{"smiles": "COc1ccc(N(C(=O)Nc2c(C)cccc2C)c2cc(Nc3ccc(N4CCN(C)CC4)cc3)ncn2)c(OC)c1", "note": "[Compound 1, reference compound]", "values": [{"measurement": "LPS stimulated phosphorylation of HDAC5 at Ser259", "setting": "[1]", "value": "reduces"}, {"measurement": "MLM t1/2", "setting": "[2]", "value": 0.183, "unit": "h"}, {"measurement": "serum bound", "setting": "[3]", "value": "> 99", "unit": "%"}, {"measurement": "EC50", "setting": "[4]", "value": "220 ± 90", "unit": "nM"}]}
{"smiles": "COc1ccc(N2C(=O)N(c3c(C)cccc3Cl)Cc3cnc(Nc4ccc(N5CCN(C)CC5)cc4)nc32)nc1", "note": "[Compound 3]", "values": [{"measurement": "toxicity in BMDCs (in words)", "setting": "BMDCs", "value": "significantly elevated toxicity"}, {"measurement": "MLM t1/2", "setting": "[2]", "value": 0.45, "unit": "h"}, {"measurement": "EC50", "setting": "[4]", "value": "11 ± 1", "unit": "nM"}]}
{"smiles": "COc1ccc(N2C(=O)N(c3c(C)cccc3Cl)Cc3cnc(Nc4ccc(C5CCN(C)CC5)cc4OC)nc32)nc1", "note": "[Compound 5]", "values": [{"measurement": "LPS stimulated phosphorylation of HDAC5 at Ser259", "setting": "[1]", "value": "reduced"}, {"measurement": "changes in viability, activity or grooming", "setting": "[5]; IP 20 mg/Kg, 24 hour treatment period", "value": "no obvious changes"}, {"measurement": "clearance t1/2", "setting": "[5]; IP, 20 mg/Kg, serum", "value": "> 7", "unit": "h"}, {"measurement": "MLM t1/2", "setting": "[6]", "value": ">2", "unit": "h"}, {"measurement": "LPS-induced increase in Il6 mRNA in colon", "setting": "[7]; IP 20 mg/Kg", "value": "not affected"}, {"measurement": "serum IL-6 levels", "setting": "[7]; IP 20 mg/Kg, LPS", "value": "moderately decreased"}, {"measurement": "increase of serum IL-10 levels", "setting": "[7]; IP 20 mg/Kg, LPS 1 hour", "value": "> 2", "unit": "fold"}, {"measurement": "Tnf transcript in colon", "setting": "[7]; IP 20 mg/Kg, throughout the experiment", "value": "reduced"}, {"measurement": "phosphorylation of HDAC5 at Ser259 in total splenic leukocytes", "setting": "[7]; IP 5 – 50 mg/Kg, 15 min before LPS 1 hour", "value": "dose dependently decreased"}, {"measurement": "abundance of TNFα in serum", "setting": "[7]; IP, beginning at 5 mg/Kg, LPS 1 hour", "value": "dose-dependently reduced"}, {"measurement": "phosphorylation of HDAC5 at Ser259 in total splenic leukocytes, immunoblotting", "setting": "[7]; IP, beginning at the 20 mg/Kg dose", "value": "below the limit of detection"}, {"measurement": "concentrations at which non-toxic", "setting": "BMDCs", "value": "≤ 10", "unit": "µM"}, {"measurement": "Il10 transcript level", "setting": "[8]", "value": "increased"}, {"measurement": "Nurr77 transcript level", "setting": "[8]", "value": "increased"}, {"measurement": "IL-1β release", "setting": "[9]", "value": "only modestly enhanced"}, {"measurement": "IL-6 production", "setting": "[9]", "value": "suppressed"}, {"measurement": "IL-12p40 production", "setting": "[9]", "value": "suppressed"}, {"measurement": "TNFα production", "setting": "[9]", "value": "suppressed"}, {"measurement": "PBS solubility", "setting": "PBS solubility", "value": "428 ± 11", "unit": "µM"}, {"measurement": "tolerability of daily injections", "setting": "C57BL/6 mice", "value": "well tolerated"}, {"measurement": "EC50", "setting": "[4]", "value": "460 ± 110", "unit": "nM"}]}
